Measured values published in patent US9205091B2, “Diazeniumdiolated compounds, pharmaceutical compositions, and method of treating cancer” (The United States of America, as represented by the …, priority 2009, dated 2015).

Experiments:
MnSOD = assay: Anti-nitrotyrosine immunoprecipitation, anti-MnSOD immunoblot; format: cell-based, human; conditions: H1703 cells, 1 h
Description: For immunoprecipitation, 300 μg of the cell lysate is incubated on the rotator overnight at 4° C. with 2 μg of anti-nitrotyrosine mAb and 30 μL of protein G agarose. After washing three times with lysis buffer, the beads are suspended in 30 μL of 2×NuPAGE (Invitrogen, Carlsbad, Calif.) loading buffer and heated for 10 min at 95° C. Immunoprecipitated material is resolved on SDS-PAGE followed by immunoblotting with anti-MnSOD antibody.
Western blot analysis is performed as previously described (Romanowska et al., Free Radical Biol. Med., 43:1145-1155 (2007)). Primary antibodies for caspases 3, 7, PARP and cleaved PARP, Bax, cytochrome c (Cell Signaling Technology, Danvers, Mass.), peroxiredoxins 1-6 (LabFrontier, Seoul, Korea), and nitrotyrosine and MnSOD (Millipore, Billerica, Mass.) are used.

[1] = system: IL-1β, IL-2, IL-4, IL-5, IL-10, IL-12t, IFNγ or TNFα; assay: Serum cytokines, mouse Th1/2 multiplex assay; format: in vivo, mice; conditions: serum at termination; 6 μmol/kg i.v., three times a week for three weeks
Description: (§1) H1944 or H1703 cells are injected at 5×10^6 s.c. into a flank of 7-week-old female athymic NCr-nu/nu mice (Charles River, Wilmington, Mass.). The drug injections are initiated when the tumors reached 2×2×2 mm (typically 3-4 weeks). JS-K is formulated in Pluronic P123 (P123) (BASF, Florham Park, N.J.) micelles. Animals are treated three times a week for three weeks with i.v. tail vein injections of either vehicle (2.25% P123 in PBS) or JS-K (6 μmol/kg in the vehicle). Tumors are measured using a caliper twice a week, and the tumor volumes are calculated using a formula for ellipsoid volume, π/6×L×W×H (Tomayko and Reynolds, 1989). The non-parametric Mann-Whitney test is utilized for statistical comparisons of tumor volumes at each time point. Body weights are taken before each drug injection. Animals are sacrificed 2 h after the last drug injection. Blood is collected by cardiac puncture under isoflurane anesthesia, for testing for cytokines. Cytokines in serum are measured using a mouse Th1/2 multiplex assay (Meso Scale Discovery, Gaithersburg, Md.), according to the manufacturer's protocol. There were 9-13 mice/group at termination.

H1944 cells [2] = assay: Intracellular ROS/RNS, CM-H2DCF-DA (DCF fluorescence); format: cell-based, human; conditions: up to 60 min
Description: (§2) Intracellular level of reactive oxygen/nitrogen species is quantified by the oxidation of the ROS/RNS-sensitive fluorophore 5-(and-6)-chloromethyl-2′,7′-dichlorodihydrofluorescein diacetate (CM-H2DCF-DA) (Invitrogen, Carlsbad, Calif.). Cells growing on 6-well plates (6×10^5/well) are loaded with 5 μM CM-H2DCF-DA in Hanks' balanced salt solution (HBSS) at 37° C. and 5% CO2. After 30 min of incubation, HBSS containing the probe is removed, cells are rinsed with HBSS and 3 mL of fresh HBSS is added to each well followed by addition of JS-K or DMSO as a control. After 30 min or 60 min the cells are collected by scraping in HBSS and 2′,7′-dichlorofluorescein (DCF) fluorescence is measured using a Perkin Elmer LS50B luminescence spectrometer with the excitation source at 488 nm and emission at 530 nm.

H1703 cells = assay: as above; format: cell-based, human; conditions: up to 60 min
Description: as §2

[3] = Body weight of xenograft mice, JS-K (Example 3); format: in vivo; conditions: 6 μmol/kg i.v., three times a week for three weeks
Description: as §1

NSCLC cell lines = assay: MTT proliferation assay, JS-K, NSCLC panel summary; format: cell-based, human; conditions: six cell lines; read-out: IC50 range of the sensitive cell lines
Description: JS-K is synthesized as described previously (Saavedra et al., J. Org. Chem., 66: 3090-3098(2001)). Cell lines are obtained from the American Type Culture Collection (Manassas, Va.) and cultured according to the supplier's protocol. For proliferation assays cells are seeded at 2×10^4 per well in 96-well plates and allowed to adhere for 24 h. JS-K is prepared as 10 mM stock solution in DMSO. Increasing drug concentrations in 10 μL of PBS are added to 100 μL of the culture medium for 48 h. MTT assay (Promega, Madison, Wis.) is performed according to the manufacturer's protocol. Each concentration is represented in six repeats, and the screening is performed as at least two independent experiments. IC50 values are calculated using Sigma Plot software (Systat Software, Chicago, Ill.).

H1944 cells [4] = assay: H1944 xenograft in athymic NCr-nu/nu mice, JS-K (Example 3); format: in vivo; conditions: 6 μmol/kg i.v., three times a week for three weeks
Description: as §1

H1373 = assay: CellTiter 96 MTT cell proliferation assay (Example 9); format: cell-based, human
Description: (§3) Cell lines derived from human non-small cell lung cancers are obtained from American Type Culture Collection (ATCC, Manassas, Va.), and are designated by their NCI numbers. Cells are maintained in RPMI 1640 medium (Gibco, Invitrogen, Carlsbad, Calif.), supplemented with 10% fetal calf serum (Gemini Bio-Products, Sacramento, Calif.), 100 U/mL penicillin/streptomycin, and 2 mM glutamine at 37° C. and 5% CO2.
(§4) For proliferation assays cells are seeded at 2×10^4/well in 96-well plates, allowed to adhere for 24 hrs, and then are treated with the drug or DMSO as a control for 48 hours. […] Compounds are prepared as 10 mM stock solution in dimethyl sulfoxide (Sigma, St. Louis, Mo.). Increasing drug concentrations in 10 μL of phosphate-buffered saline (PBS) are added to 100 μL of the culture medium and incubated at 37° C. for 72 h. The CellTiter 96 non-radioactive cell proliferation assay (MTT assay, Promega, Madison, Wis.), is performed according to the manufacturer's protocol. Each compound concentration is represented in six repeats, and the screening is performed as at least two independent experiments. IC50 values are calculated using Sigma Plot software (Systat Software).

H2122 = assay: as above; format: cell-based, human
Description: as §3, §4

H441 = assay: as above; format: cell-based, human
Description: as §3, §4

H1703 = assay: as above; format: cell-based, human
Description: as §3, §4

H1944 = assay: as above; format: cell-based, human
Description: as §3, §4

serum cytokine levels, treated vs control groups [1]: no significant differences | IC50 (H1373): 0.86 µM | IC50 (H2122): 3.17 µM | IC50 (H441): 0.94 µM | IC50 (H1703): 0.57 µM | IC50 (H1944): > 10 µM
SMILES: CCOC(=O)N1CCN(/[N+]([O-])=N/Oc2ccc([N+](=O)[O-])cc2[N+](=O)[O-])CC1 [Compound 1]
nitrotyrosine level in MnSOD (MnSOD): increase | DCF-reactive material (H1944 cells [2]): not | DCF-reactive material (H1703 cells): increase | effect on body weight [3]: did not affect body weight | IC50 (NSCLC cell lines): 330 to 1010 nM | growth of xenografted tumor cells vs vehicle (H1944 cells [4]): significantly reduces growth
